The nature of the series: gradient 5% acetonitrile 3 min, to 50% in 2 min, to 85% in 15 min, held 3 min, 100 µL/min. The conditions noted are these: column: Zorbax Extend-C18 2.1 x 50 mm; eluents: water / acetonitrile, 0.1% formic acid. The essentials:
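Over 3 months, pure standards in mixtures of ~100 molecules were run by HPLC coupled to a quadrupole time-of-flight mass spectrometer in positive and negative ionization mode. The column was a Zorbax Extend-C18 (2.1 × 50 mm, 1.8 μm) at 100 μL/min, eluted with water and acetonitrile each holding 0.1% formic acid, with 40 μL dead and 900 μL dwell volumes. Retention time was determined from adduct peaks chosen by software and checked manually.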
`CCC(C)CNCC(=O)N1CCc2sccc2C1COc1cccc(C)c1` (stereo not given) came in with an RP-LC retention time of 916 s. Then `COc1ccc(NC(=O)CSc2nccc(N3CCCC3)n2)cc1Cl`, with 593 s; and `CN(C)CCCN1c2ccc3ccccc3c2Sc2cccc(Cl)c21`, with 792 s; and `CC(=O)Nc1ccc(OC(=O)Oc2ccc(NC(C)=O)cc2)cc1`, with 724 s. Then `CCn1cc(C(=O)Nc2ccccc2)c(S(=O)(=O)N2CCSCC2)n1`, with 834 s; and `CCCNC(=O)C1CCN(c2ccc(SCC(=O)Nc3ccc4c(c3)OCCO4)nn2)CC1`, with 626 s; and `COc1ccc(OC)c(C(C)NC(=O)CCc2ccc3nc[nH]c3c2)c1` (stereo not given), with 613 s. For the compound `CN1C(=O)c2ccccc2C(C(=O)Nc2ccc(F)cc2F)C1c1cccs1` (stereo not given), the RP-LC retention time came out at 884 s. `CCOCCCNC(=O)N1c2ccccc2CC1c1nc(C(C)C)no1` (stereo not given) returned an RP-LC retention time of 901 s. Take `CCN1C(=O)c2cc(S(=O)(=O)Nc3ccc(F)c(C)c3)ccc2Oc2cccnc21`: the RP-LC retention time amounted to 1060 s. `COc1ccc(-c2cnc(SCC(=O)Nc3cc(C)on3)n2Cc2ccco2)cc1`: the RP-LC retention time stood at 705 s.

Compound `COc1ccc(-n2c(=O)n(C)c(=O)c3cc(C(=O)NC(C)c4ccccc4)cnc32)cc1` (stereo not given) displayed an RP-LC retention time of 871 s. Take `CCCN(Cc1ccc(Cl)cc1)Cc1cc(=O)n2ccc(C)cc2n1`: the RP-LC retention time amounted to 669 s. Then `O=C(Nc1cccc(Cl)c1)Nc1c(-c2ccc(F)cc2)nc2ccccn12`, with 730 s.

Compound `CCc1cccc(NC(=O)c2c(C)oc3c2C2=NC(CC)CN2C=N3)c1` (stereo not given) had an RP-LC retention time of 698 s. As to `Cc1ccc(C)c(NC(=O)Cn2cccc(-c3nc(-c4ccc(Br)cc4)no3)c2=O)c1`, the RP-LC retention time stood at 1030 s. `CCNC(=O)Nc1ccc2c(c1)CN(CC1CCCCC1)CCO2` showed an RP-LC retention time of 610 s.

`CCCc1cc(C2CCCN2C(=O)NCc2cccc(OC)c2)no1` (stereo not given) gave an RP-LC retention time of 856 s. In turn, `CCc1nccn1Cc1nc(-c2ccc(OC)cc2)no1` displayed an RP-LC retention time of 620 s.

`CC(Oc1c(Cl)cccc1Cl)C1=NCCN1` (stereo not given) gave an RP-LC retention time of 622 s. Compound `Cc1ccc(N2CC(c3nc(-c4ccc5c(c4)nnn5C4CCCC4)no3)CC2=O)cc1` (stereo not given) came in with an RP-LC retention time of 1070 s. `O=C(Nc1nnc(-c2cc3ccccc3o2)o1)c1ccc([N+](=O)[O-])o1` registered an RP-LC retention time of 792 s. `CC(C)C(=O)Nc1cc2c(cc1S(=O)(=O)c1ccccc1)n(C)c(=O)n2C` yielded an RP-LC retention time of 772 s. The compound `CC1Cc2cc(-c3cc(CC(=O)Nc4nc5ccccc5[nH]4)no3)ccc2O1` (stereo not given) registered an RP-LC retention time of 657 s. Then `Cn1c(=O)n(CC(=O)N2CCc3ccccc3C2)c(=O)c2cnc(-c3ccc(Cl)cc3)nc21`, with 1140 s; and `Cn1c(CNC(=O)C2(C)CCCCC(=O)N2)nc2ccccc21` (stereo not given), with 573 s. Then `CC1=C(c2ccc(F)cc2)S(=O)(=O)N=C1N1CCC(NC(=O)c2ccoc2)CC1`, with 747 s; and `O=C(C1COc2ccccc2O1)N1CCOc2ccc(N3CCCC3)cc2C1` (stereo not given), with 794 s. `Cn1cc(-c2ccccc2)cc1C(=O)NCc1cccs1`: the RP-LC retention time stood at 979 s. Then `Cn1ncc2c3ccccc3n(CCCC(=O)N3CCN(c4ccccc4)CC3)c2c1=O`, with 918 s; and `O=C(NC1(c2nc(-c3cccnc3)no2)CCCCC1)c1ccoc1`, with 802 s; and `COc1ccc(C(=O)NC2CCN(c3ccc(=O)[nH]n3)C2)c(OC)n1` (stereo not given), with 660 s. Then `O=C(NCCOc1ccc(F)cc1)c1ccc(S(=O)(=O)N2CCCC2)cc1`, with 813 s; and `CCN(CC)CCNC(=O)CN1C(=O)C2CCCCN2c2ccc(S(=O)(=O)N3CCCC3)cc21` (stereo not given), with 633 s. `COC(=O)c1cc(OCC(=O)Nc2ccc3c(c2)OCO3)c2cc(Cl)ccc2n1` returned an RP-LC retention time of 863 s. On to `Nc1nc(-c2ccccc2)nn1C(=O)C1CC1`, for which the RP-LC retention time came to 800 s. As to `Cc1noc(C)c1S(=O)(=O)NCCn1c(C)cnc1-c1ccccc1`, the RP-LC retention time is 616 s. As for `Cc1ccc(CNC(=O)c2cc3sc(Cl)cc3n2C)cc1`, the RP-LC retention time worked out at 1110 s. `COc1cccc(N2CCN(c3ccnc(SCC(=O)Nc4cc(F)ccc4Cl)n3)CC2)c1` yielded an RP-LC retention time of 836 s.

Compound `CCCn1ccc2sc(C)c(C(=O)NCc3ccc(C)o3)c2c1=O` registered an RP-LC retention time of 867 s.

For `CCN(CC)CCNC(=O)Cn1c2ccccc2c2nc(=O)cc(C)n21`, the RP-LC retention time amounted to 592 s.

With `CCOC(=O)c1cnc2nc(C)ccc2c1Nc1ccccc1`, the RP-LC retention time was 673 s. Consider `CCc1nc(-c2csc(S(=O)(=O)N3CCC(C(=O)NCc4ccccc4C)CC3)c2)no1`, for which the RP-LC retention time is 818 s. `Cc1nnc(C2CC3(CCN(Cc4ccccc4)CC3)CN2CCc2ccccc2)o1` (stereo not given) returned an RP-LC retention time of 638 s.

The compound `COc1cccc(-c2cc(C(=O)N3CCOCC3)[nH]n2)c1` showed an RP-LC retention time of 658 s. In turn, `Cc1ccc(OCC(=O)N2CCC(c3noc(-c4cnccn4)n3)C2)cc1` (stereo not given) returned an RP-LC retention time of 754 s. Then `CCOCCCNC(=O)C1CCN(c2cc(Oc3cccc(C)c3C)ncn2)CC1`, with 819 s. `CN(C)C[C@@H]1CN(c2ncccn2)C[C@H]1NS(=O)(=O)Cc1ccc(F)cc1`: the RP-LC retention time worked out at 590 s. `Fc1ccccc1-c1nc(-c2ccc3c(c2)ncn3CCN2CCOCC2)no1` gave an RP-LC retention time of 627 s.

`CCc1nn2c(N3CCN(c4ccccn4)CC3)cc(C)nc2c1-c1ccc(F)cc1` displayed an RP-LC retention time of 686 s. Turning to `COc1cccc(CNC(=O)CN2C(=O)CSc3cccn3-c3ccccc32)c1`, the RP-LC retention time amounted to 846 s.

In the case of `Cc1cc(C)cc(-n2ccnc(NC(=O)Nc3ccc(C)c(F)c3)c2=O)c1`, the RP-LC retention time was found to be 1140 s. For `CC1CCN(S(=O)(=O)c2cccn(Cc3cc(F)cc(F)c3)c2=O)CC1`, the RP-LC retention time is 974 s. Then `O=C(c1cccs1)N1CCCC(OCc2nc(C3CC3)no2)C1` (stereo not given), with 786 s. `O=C(CNC(=O)Cc1ccc(Cl)cc1)NCc1[nH]nc2ccccc12` gave an RP-LC retention time of 703 s.

`CCCNC(=O)C1CCCN(c2nc3ncn(CC(=O)NCc4ccc(F)cc4)c(=O)c3s2)C1` (stereo not given) registered an RP-LC retention time of 695 s. `CC(=O)c1ccc(N2CCN(C(=O)Cn3ccc4ccc(-c5nnc(C)o5)cc43)CC2)cc1` registered an RP-LC retention time of 764 s. Compound `CC(C)n1c(=O)sc2cc(S(=O)(=O)N3CCC(C(=O)NCCc4ccccc4)CC3)ccc21` registered an RP-LC retention time of 985 s. Then `O=C(CCNc1c(-c2cccc(F)c2)nc2cnccn12)NCc1ccccc1F`, with 742 s.

For the compound `O=C(CNS(=O)(=O)c1ccc2c(c1)OCCO2)N1CCOC(c2ccccc2)C1` (stereo not given), the RP-LC retention time was 775 s. As to `CC(NC(=O)C1CCN(c2cncnc2N2CCOCC2)CC1)c1ccc(F)cc1` (stereo not given), the RP-LC retention time worked out at 628 s. The compound `CCc1nccn1Cc1noc(-c2cccc(OC)c2)n1` returned an RP-LC retention time of 557 s. Turning to `Cc1cc2c(cc1S(=O)(=O)N1CCCC1C(=O)N1CCN(c3ccccc3)CC1)OCC(=O)N2` (stereo not given), the RP-LC retention time is 747 s. For the compound `Cc1ccc(C(=O)NC2(c3nc(-c4ccccc4)no3)CCCCC2)cc1C`, the RP-LC retention time worked out at 1250 s. `COc1ccccc1CNC(=O)CN1C(=O)CSc2cccn2-c2ccccc21`: the RP-LC retention time was determined as 613 s.

With `CCOC(=O)C1=C(O)C(=O)N(c2ccccc2)C1c1ccccc1` (stereo not given), the RP-LC retention time was determined as 881 s. Compound `O=C(NC1CC1)c1ccc(OCC2CCCN(C(=O)c3ccoc3)C2)cc1` (stereo not given) showed an RP-LC retention time of 712 s. In the case of `COc1ccc(-c2nc(C3CC(=O)N(c4ccc(C)cc4)C3)no2)c(OC)c1` (stereo not given), the RP-LC retention time turned out to be 939 s. Then `CCC(=O)Nc1nc(-c2ccc3c(c2)NC(=O)CO3)c(C)s1`, with 719 s; and `CN1C(=O)[C@]2(CO)SSC1(Cc1cn([C@]34C[C@@]56SS[C@@](CO)(C(=O)N5[C@H]3Nc3ccccc34)N(C)C6=O)c3ccccc13)C(=O)N2C`, with 898 s; and `COCCCNc1nccc(-n2nc(C)cc2C)n1`, with 631 s.

`COc1cccc(CNS(=O)(=O)c2cc(-c3cc(C(F)(F)F)on3)sc2C)c1` came in with an RP-LC retention time of 1120 s. Turning to `O=C(c1cc(-c2ccncc2)n[nH]1)N1CCN(C(=O)C2(c3ccccc3)CC2)CC1`, the RP-LC retention time was determined as 590 s. `CCOc1ccccc1NC(=O)Cn1ncc2c(c1=O)N(C1CC1)C(=O)CS2` yielded an RP-LC retention time of 775 s. Then `O=S(=O)(c1ccccc1F)N1CCC(c2noc(-c3ccccc3)n2)CC1`, with 1020 s; and `COc1cc(C(=O)Nc2nc3ccc4nc(SC)sc4c3s2)cc(OC)c1OC`, with 1080 s. With `COCCNC(=O)Nc1ccc(CCc2nc3ccccc3n2C)cc1`, the RP-LC retention time was 583 s. The compound `O=C(CN1C(=O)C2CCCCN2c2ccc(S(=O)(=O)N3CCCC3)cc21)N1CCCCC1` (stereo not given) returned an RP-LC retention time of 872 s. `O=C(Nc1ccc2ncsc2c1)c1cc(Cl)sc1Cl` gave an RP-LC retention time of 852 s.

On to `CCn1c(=O)oc2cc(-c3noc(-c4cc(F)ccc4F)n3)ccc21`, for which the RP-LC retention time came out at 1100 s.

These data come from the METLIN SMRT retention time set (Domingo-Almenara et al. 2019).
